# Experimental data taken from patent US7569726B2, “Indanone derivatives that inhibit prolyl hydroxylase” (Amgen Inc., priority 2007, dated 2009).
# Target: HIF PHD2 (Homo sapiens, UniProt Q9GZT9)
# Assay: PHD2 inhibition assay (TR-FRET, VCB-Eu detection of hydroxylated P564-HIF1α peptide)
# Type: biochemical
# Details: 2 nM PHD2, 100 nM P564-HIF1α peptide, 0.25 μM 2-oxoglutarate, 100 μM FeCl2, pH 6, TR-FRET
# Method: Inhibition of HIF PHD2 activity was quantified utilizing the TR-FRET technology. HIF PHD2 catalyzes a hydroxyl modification on the proline residue of the P564-HIF1α peptide substrate (Biotin-DLEMLAPYIPMDDDFQL (SEQ ID NO: 7)) resulting in recognition and binding of the europylated Von Hippel-Lindau protein (pVHL), elongin B and elongin C heterotrimeric (VCB-Eu) complex.
# The PHD2 inhibition assay was executed by addition of freshly dissolved FeCl2 to 178.57 μM (100 μM final concentration) in PHD2 Reaction Buffer containing 30 mM MES, pH 6, 10 mM NaCl, 0.25% Brij-35, 0.01% BSA, and 1% DMSO. 28 μL of the iron solution and 2 μL of inhibitor compounds serially diluted in 100% DMSO (5% DMSO final) were added to black polypropylene 96-well microtiter plates. To that, 10 μL of 10 nM PHD2 (2 nM final) was added to all wells of the plate except for the 8 wells of column 12 (LO control), and allowed to incubate at room temperature on the shaker for one hour. Column 6 was the HI control containing PHD2 enzyme and 5% DMSO vehicle, but no inhibitor compound. To initiate the PHD2 enzymatic reaction, 10 μL of a solution containing 500 nM P564-HIF1α peptide (100 nM final), 10 mM ascorbic acid (2 mM final), and 1.25 μM 2-oxoglutarate (α-ketoglutarate; 0.25 μM final) in PHD2 Reaction Buffer was added to all wells of the plate and allowed to incubate on the shaker at room temperature for one hour.
# The reaction was terminated by addition of 25 μL TR-FRET Buffer (50 mM TRIS-HCl, pH 9, 100 mM NaCl, 0.05% BSA, and 0.5% Tween-20) containing 150 mM succinate (product inhibitor; 50 mM final), 75 nM streptavidin-APC (25 nM final), and 7.5 nM VCB-Eu (2.5 nM final). The TR-FRET detection reagents were placed on a shaker for 1 hour to reach binding equilibrium before reading on the Discovery platform (PerkinElmer). Europium is excited at 315 nm and phosphoresces at 615 nm with a large Stoke's shift. APC, in turn, emits at 655 nm upon excitation at 615 nm. The TR-FRET signal is measured as the ratio of the APC 655 nm signal divided by the internal europium reference 615 nm emission signal.
# The POC (percentage of control) was determined by comparing the signal from hydroxylated peptide substrate in the enzyme reaction containing inhibitor compound with that from PHD2 enzyme with DMSO vehicle alone (HI control), and no enzyme (LO control). POC was calculated using the formula: % control (POC)=(cpd−average LO)/(average HI−average LO)*100. Data (consisting of POC and inhibitor concentration in μM) was fitted to a 4-parameter equation (y=A+((B−A)/(1+((x/C)^D))), where A is the minimum y (POC) value, B is the maximum y (POC), C is the x (cpd concentration) at the point of inflection and D is the slope factor) using a Levenburg-Marquardt non-linear regression algorithm.
# Chain of HIF PHD2 (Q9GZT9 whole entry): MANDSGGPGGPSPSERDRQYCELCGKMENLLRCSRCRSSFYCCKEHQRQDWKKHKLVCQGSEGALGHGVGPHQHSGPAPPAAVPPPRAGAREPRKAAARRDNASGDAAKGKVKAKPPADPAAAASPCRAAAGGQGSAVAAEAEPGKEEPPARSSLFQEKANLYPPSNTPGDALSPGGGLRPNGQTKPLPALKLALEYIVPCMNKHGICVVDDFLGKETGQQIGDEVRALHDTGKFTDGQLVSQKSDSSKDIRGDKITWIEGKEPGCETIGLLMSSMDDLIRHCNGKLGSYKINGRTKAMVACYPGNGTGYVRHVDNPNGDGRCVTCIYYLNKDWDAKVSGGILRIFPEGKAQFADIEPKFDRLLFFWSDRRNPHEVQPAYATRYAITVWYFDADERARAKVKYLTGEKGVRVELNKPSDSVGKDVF
row,Structure (SMILES),IC50 [µM]
1,"O=C(O)CNC(=O)C1=C(O)c2c(I)cccc2C1=O [Example 1, 2-(3-hydroxy-4-iodo-1-oxo-1H-indene-2-carboxamido)acetic acid]",0.0225
2,"O=C(O)CNC(=O)C1=C(O)c2cc(Br)ccc2C1=O [Example 2, 2-(5-bromo-3-hydroxy-1-oxo-1H-indene-2-carboxamido)acetic acid]",0.0206
3,"O=C(O)CNC(=O)C1=C(O)c2cc(C(F)(F)F)ccc2C1=O [Example 3, 2-(3-hydroxy-1-oxo-5-(trifluoromethyl)-1H-indene-2-carboxamido)acetic acid]",0.013
4,"O=C(O)CNC(=O)C1=C(O)c2c(Cl)cccc2C1=O [Example 4, 2-(4-chloro-3-hydroxy-1-oxo-1H-indene-2-carboxamido)acetic acid]",0.0095
5,"O=C(O)CNC(=O)C1=C(O)c2cc(F)ccc2C1=O [Example 6, 2-(6-fluoro-3-hydroxy-1-oxo-1H-indene-2-carboxamido)acetic acid]",0.0501
6,O=C(O)CNC(=O)C1=C(O)c2c(F)cccc2C1=O [Example 7],0.0255
7,"O=C(O)CNC(=O)C1=C(O)c2c(Cl)ccc(Cl)c2C1=O [Example 8, 2-(4,7-dichloro-3-hydroxy-1-oxo-1H-indene-2-carboxamido)acetic acid]",0.0472
8,"O=C(O)CNC(=O)C1=C(O)c2c(cccc2-c2ccccc2)C1=O [Example 9, 2-(3-hydroxy-1-oxo-7-phenyl-1H-indene-2-carboxamido)acetic acid]",0.0028
9,"O=C(O)CNC(=O)C1=C(O)c2ccc(-c3ccccc3)cc2C1=O [Example 10, 2-(3-hydroxy-1-oxo-6-phenyl-1H-indene-2-carboxamido)acetic acid]",0.0116
10,"COc1ccc(-c2cccc3c2C(O)=C(C(=O)NCC(=O)O)C3=O)cc1 [Example 11, 2-(3-hydroxy-4-(4-methoxyphenyl)-1-oxo-1H-indene-2-carboxamido)acetic acid]",0.0036
11,"COc1ccc(-c2ccc3c(c2)C(O)=C(C(=O)NCC(=O)O)C3=O)cc1 [Example 12, 2-(3-hydroxy-5-(4-methoxyphenyl)-1-oxo-1H-indene-2-carboxamido)acetic acid]",0.022
12,"O=C(O)CNC(=O)C1=C(O)c2c(cccc2-c2ccc(Cl)cc2)C1=O [Example 13, 2-(4-(4-chlorophenyl)-3-hydroxy-1-oxo-1H-indene-2-carboxamido)acetic acid]",0.0038
13,"O=C(O)CNC(=O)C1=C(O)c2c(cccc2-c2cccc(Cl)c2)C1=O [Example 14, 2-(4-(3-chlorophenyl)-3-hydroxy-1-oxo-1H-indene-2-carboxamido)acetic acid]",0.003
14,"O=C(O)CNC(=O)C1=C(O)c2c(cccc2-c2ccccc2Cl)C1=O [Example 15, 2-(4-(2-chlorophenyl)-3-hydroxy-1-oxo-1H-indene-2-carboxamido)acetic acid]",0.0085
15,"COc1ccccc1-c1cccc2c1C(=O)C(C(=O)NCC(=O)O)=C2O [Example 16, 2-(3-hydroxy-7-(2-methoxyphenyl)-1-oxo-1H-indene-2-carboxamido)acetic acid]",0.0221
16,"COc1cccc(-c2cccc3c2C(=O)C(C(=O)NCC(=O)O)=C3O)c1 [Example 17, 2-(3-hydroxy-7-(3-methoxyphenyl)-1-oxo-1H-indene-2-carboxamido)acetic acid]",0.003
17,"O=C(O)CNC(=O)C1=C(O)c2ccc(-c3ccccc3Cl)cc2C1=O [Example 18, 2-(6-(2-chlorophenyl)-3-hydroxy-1-oxo-1H-indene-2-carboxamido)acetic acid]",0.0036
18,"COc1cccc(-c2ccc3c(c2)C(=O)C(C(=O)NCC(=O)O)=C3O)c1 [Example 19, 2-(3-hydroxy-6-(3-methoxyphenyl)-1-oxo-1H-indene-2-carboxamido)acetic acid]",0.0055
